Data reported in patent US20080234262A1 (Wyeth, priority 2007, published 2008).

System: breast line MDA468
Test: In vitro cell culture growth assay (MTS), MDA468
Type: cell-based, human
Settings: MDA468 cells, three days after drug treatment
Method: Human tumor cell lines used include prostate lines LNCap and PC3MM2, breast lines MDA468, MCF7, renal line HTB44 (A498), colon line HCT116, and ovarian line OVCAR3. Cells were plated in 96-well culture plates. One day following plating, the inhibitors were added to cells. Three days after drug treatment, viable cell densities were determined by metabolic conversion (by viable cells) of the dye MTS, a well established cell proliferation assay. The assays were performed using an assay kit purchased from Promega Corp. (Madison, Wis.) following the protocol supplied with the kit. The MTS assay results were read in a 96-well plate reader by measuring absorbance at 490 nm. The effect of each treatment was calculated as percent of control growth relative to the vehicle-treated cells grown in the same culture plate.

Row | SMILES | IC50 (Homo sapiens, 72 h) | IC50
1 | COC(=O)N1CCC(n2ncc3c(N4CCOCC4)nc(-c4ccc(NC(=O)NCCF)cc4)nc32)CC1 [Compound 732, methyl 4-[6-(4-{[(2-fluoroethyl)carbamoyl]amino}phenyl)-4-morpholin-4-yl-1H-pyrazolo[3,4-d]pyrimidin-1-yl]piperidine-1-carboxylate] | 90 nM | 
2 | CC(C)OC(=O)N1CCC(n2ncc3c(N4CCOCC4)nc(-c4ccc(NC(=O)NC5CC5)cc4)nc32)CC1 [Compound 835, isopropyl 4-(6-{4-[(cyclopropylcarbamoyl)amino]phenyl}-4-morpholin-4-yl-1H-pyrazolo[3,4-d]pyrimidin-1-yl)piperidine-1-carboxylate] | 320 nM | 
3 | COC(=O)N1CCC(n2ncc3c(N4CCOCC4)nc(-c4ccc(NC(=O)Nc5ccc(CCN6CCN(C)CC6)cc5)cc4)nc32)CC1 [Compound 917, methyl 4-(6-{4-[({4-[2-(4-methylpiperazin-1-yl)ethyl]phenyl}carbamoyl)amino]phenyl}-4-morpholin-4-yl-1H-pyrazolo[3,4-d]pyrimidin-1-yl)piperidine-1-carboxylate] | 60 nM | 
4 | CNC(=O)Nc1ccc(-c2nc(N3CCOCC3)c3cnn(C4CCN(C(=O)OC(C)(C)C)CC4)c3n2)cc1 [Compound 582, tert-butyl 4-(6-{4-[(methylcarbamoyl)amino]phenyl}-4-morpholin-4-yl-1H-pyrazolo[3,4-d]pyrimidin-1-yl)piperidine-1-carboxylate] |  | 210 nM
5 | CCNC(=O)Nc1ccc(-c2nc(N3CCOCC3)c3cnn(C4CCN(Cc5ccccc5)CC4)c3n2)cc1 [Example 253, 1-{4-[1-(1-benzylpiperidin-4-yl)-4-morpholin-4-yl-1H-pyrazolo[3,4-d]pyrimidin-6-yl]phenyl}-3-ethylurea] | 400 nM | 
6 | CNC(=O)Nc1ccc(-c2nc(N3CCOCC3)c3cnn(C4CCN(C(=O)OC)CC4)c3n2)cc1 [Compound 720, methyl 4-(6-{4-[(methylcarbamoyl)amino]phenyl}-4-morpholin-4-yl-1H-pyrazolo[3,4-d]pyrimidin-1-yl)piperidine-1-carboxylate] |  | 95 nM
7 | COC(=O)N1CCC(n2ncc3c(N4CCOCC4)nc(-c4ccc(NC(=O)Nc5ccccc5)cc4)nc32)CC1 [Compound 735, methyl 4-(6-{4-[(anilinocarbonyl)amino]phenyl}-4-morpholin-4-yl-1H-pyrazolo[3,4-d]pyrimidin-1-yl)piperidine-1-carboxylate] | 80 nM | 
8 | CONC(=O)Nc1ccc(-c2nc(N3CCOCC3)c3cnn(C4CCN(Cc5ccccc5)CC4)c3n2)cc1 [Compound 286, 1-{4-[1-(1-benzylpiperidin-4-yl)-4-morpholin-4-yl-1H-pyrazolo[3,4-d]pyrimidin-6-yl]phenyl}-3-methoxyurea] | 200 nM | 
9 | CN(C)NC(=O)Nc1ccc(-c2nc(N3CCOCC3)c3cnn(C4CCN(Cc5ccccc5)CC4)c3n2)cc1 [Compound 290, N-{4-[1-(1-benzylpiperidin-4-yl)-4-morpholin-4-yl-1H-pyrazolo[3,4-d]pyrimidin-6-yl]phenyl}-2,2-dimethylhydrazinecarboxamide] | 8000 nM | 
10 | CN1CCC(NC(=O)Nc2ccc(-c3nc(N4CCOCC4)c4cnn(C5CCN(Cc6ccccc6)CC5)c4n3)cc2)CC1 [Compound 272] | 1200 nM | 
11 | CNC(=O)Nc1ccc(-c2nc(N3CCOCC3)c3cnn(C4CCN(Cc5ccccc5)CC4)c3n2)cc1 [Example 206, N-{4-[1-(1-benzylpiperidin-4-yl)-4-morpholin-4-yl-1H-pyrazolo[3,4-d]pyrimidin-6-yl]phenyl}-N′-methylurea] | 100 nM | 
12 | CNC(=O)Cc1ccc(-c2nc(N3CCOCC3)c3cnn(C4CCN(Cc5ccccc5)CC4)c3n2)cc1 [Compound 371, 2-{4-[1-(1-benzylpiperidin-4-yl)-4-morpholin-4-yl-1H-pyrazolo[3,4-d]pyrimidin-6-yl]phenyl}-N-methylacetamide] | 10000 nM | 
13 | COC(=O)Nc1ccc(-c2nc(N3CCOCC3)c3cnn(C4CCN(Cc5ccccc5)CC4)c3n2)cc1 [Example 154, methyl {4-[1-(1-benzylpiperidin-4-yl)-4-morpholin-4-yl-1H-pyrazolo[3,4-d]pyrimidin-6-yl]phenyl}carbamate] | 3000 nM | 
14 | CNC(=O)Nc1ccc(-c2nc(N3CCOCC3)c3cnn(C4CCN(C(=O)OC(C)(C)C)CC4)c3n2)cc1 [Example 337, tert-butyl 4-(6-{4-[(methylcarbamoyl)amino]phenyl}-4-morpholin-4-yl-1H-pyrazolo[3,4-d]pyrimidin-1-yl)piperidine-1-carboxylate] | 300 nM | 
15 | O=C(Nc1ccc(-c2nc(N3CCOCC3)c3cnn(C4CCN(Cc5ccccc5)CC4)c3n2)cc1)Nc1ncc[nH]1 [Example 326, 1-{4-[1-(1-benzylpiperidin-4-yl)-4-morpholin-4-yl-1H-pyrazolo[3,4-d]pyrimidin-6-yl]phenyl}-3-(1H-imidazol-2-yl)urea] | 3500 nM | 
16 | CN(C)CCNC(=O)Nc1ccc(-c2nc(N3CCOCC3)c3cnn(C4CCN(Cc5ccccc5)CC4)c3n2)cc1 [Compound 268, 1-{4-[1-(1-benzylpiperidin-4-yl)-4-morpholin-4-yl-1H-pyrazolo[3,4-d]pyrimidin-6-yl]phenyl}-3-[2-(dimethylamino)ethyl]urea] | 600 nM | 
17 | O=C(Nc1ccccc1)Nc1ccc(-c2nc(N3CCOCC3)c3cnn(C4CCN(Cc5ccccc5)CC4)c3n2)cc1 [Compound 503, 1-{4-[1-(1-benzylpiperidin-4-yl)-4-morpholin-4-yl-1H-pyrazolo[3,4-d]pyrimidin-6-yl]phenyl}-3-phenylurea] | 1050 nM | 
18 | O=C(NCCO)Nc1ccc(-c2nc(N3CCOCC3)c3cnn(C4CCN(Cc5ccccc5)CC4)c3n2)cc1 [Example 265, 1-{4-[1-(1-benzylpiperidin-4-yl)-4-morpholin-4-yl-1H-pyrazolo[3,4-d]pyrimidin-6-yl]phenyl}-3-(2-hydroxyethyl)urea] | 100 nM | 
19 | CC(C)OC(=O)N1CCC(n2ncc3c(N4CCOCC4)nc(-c4ccc(NC(=O)NCCF)cc4)nc32)CC1 [Compound 833, isopropyl 4-[6-(4-{[(2-fluoroethyl)carbamoyl]amino}phenyl)-4-morpholin-4-yl-1H-pyrazolo[3,4-d]pyrimidin-1-yl]piperidine-1-carboxylate] | 250 nM | 
20 | O=C(NCCF)Nc1ccc(-c2nc(N3CCOCC3)c3cnn(C4CCN(Cc5ccccc5)CC4)c3n2)cc1 [Compound 534, 1-{4-[1-(1-benzylpiperidin-4-yl)-4-morpholin-4-yl-1H-pyrazolo[3,4-d]pyrimidin-6-yl]phenyl}-3-(2-fluoroethyl)urea] | 27.4 nM | 
21 | CN1CCC(NC(=O)Nc2ccc(-c3nc(N4CCOCC4)c4cnn(C5CCN(Cc6ccccc6)CC5)c4n3)cc2)CC1 [Compound 517, 1-{4-[1-(1-benzylpiperidin-4-yl)-4-morpholin-4-yl-1H-pyrazolo[3,4-d]pyrimidin-6-yl]phenyl}-3-(1-methylpiperidin-4-yl)urea] | 1200 nM | 
22 | CNC(=O)Nc1ccc(-c2nc(N3CCOCC3)c3cnn(C4CCN(C(=O)OC)CC4)c3n2)cc1 [Example 476, methyl 4-(6-{4-[(methylcarbamoyl)amino]phenyl}-4-morpholin-4-yl-1H-pyrazolo[3,4-d]pyrimidin-1-yl)piperidine-1-carboxylate] | 100 nM | 
23 | COC(=O)N1CCC(n2ncc3c(N4CCOCC4)nc(-c4ccc(NC(=O)Nc5ccc(CCN6CCOCC6)cc5)cc4)nc32)CC1 [Compound 918, methyl 4-{4-morpholin-4-yl-6-[4-({[4-(2-morpholin-4-ylethyl)phenyl]carbamoyl}amino)phenyl]-1H-pyrazolo[3,4-d]pyrimidin-1-yl}piperidine-1-carboxylate] | 180 nM | 
24 | CC(C)(C)OC(=O)N1CCC(n2ncc3c(N4CCOCC4)nc(-c4ccc(NC(=O)NCCF)cc4)nc32)CC1 [Compound 765, tert-butyl 4-[6-(4-{[(2-fluoroethyl)carbamoyl]amino}phenyl)-4-morpholin-4-yl-1H-pyrazolo[3,4-d]pyrimidin-1-yl]piperidine-1-carboxylate] | 360 nM | 
25 | COC(=O)N1CCC(n2ncc3c(N4CCOCC4)nc(-c4ccc(NC(=O)Nc5ccc(N6CCN(C)CC6)cc5)cc4)nc32)CC1 [Compound 910, methyl 4-{6-[4-({[4-(4-methylpiperazin-1-yl)phenyl]carbamoyl}amino)phenyl]-4-morpholin-4-yl-1H-pyrazolo[3,4-d]pyrimidin-1-yl}piperidine-1-carboxylate] | 0.8 nM | 
26 | O=C(NCCO)Nc1ccc(-c2nc(N3CCOCC3)c3cnn(C4CCN(Cc5ccccc5)CC4)c3n2)cc1 [Compound 510, 1-{4-[1-(1-benzylpiperidin-4-yl)-4-morpholin-4-yl-1H-pyrazolo[3,4-d]pyrimidin-6-yl]phenyl}-3-(2-hydroxyethyl)urea] | 50 nM | 
27 | CN(C)C(=O)Nc1ccc(-c2nc(N3CCOCC3)c3cnn(C4CCN(Cc5ccccc5)CC4)c3n2)cc1 [Compound 205] | 8000 nM | 
28 | CCNC(=O)Nc1ccc(-c2nc(N3CCOCC3)c3cnn(C4CCN(Cc5ccccc5)CC4)c3n2)cc1 [Compound 499, 1-{4-[1-(1-benzylpiperidin-4-yl)-4-morpholin-4-yl-1H-pyrazolo[3,4-d]pyrimidin-6-yl]phenyl}-3-ethylurea] | 350 nM | 
29 | O=C(Nc1ccccc1)Nc1ccc(-c2nc(N3CCOCC3)c3cnn(C4CCN(Cc5ccccc5)CC4)c3n2)cc1 [Example 257, 1-{4-[1-(1-benzylpiperidin-4-yl)-4-morpholin-4-yl-1H-pyrazolo[3,4-d]pyrimidin-6-yl]phenyl}-3-phenylurea] | 1100 nM | 
30 | CNC(=O)Nc1ccc(-c2nc(N3CCOCC3)c3cnn(C4CCN(C(=O)OC(C)C)CC4)c3n2)cc1 [Compound 752, isopropyl 4-(6-{4-[(methylcarbamoyl)amino]phenyl}-4-morpholin-4-yl-1H-pyrazolo[3,4-d]pyrimidin-1-yl)piperidine-1-carboxylate] | 53 nM | 
